From the NIST ThermoML archive (doi:10.1021/acs.jced.7b00702)

Details: 100 kPa, Liquid; for viscosity: Falling or rolling sphere viscometry; for mass density: Vibrating tube method

CCn1cc[n+](C)c1.[Cl-].[Cl][Al]([Cl])[Cl] [1-ethyl-3-methyl-1H-imidazolium tetrachloroaluminate]
Details | mass density [kg/m3] | viscosity [mPa·s]
293.15 K | 1299.32 | 20.62
303.15 K | 1291.13 | 15.69
313.15 K | 1283.05 | 12.31
323.15 K | 1275.03 | 9.952
333.15 K | 1267.1 | 8.214
343.15 K | 1259.22 | 6.927
353.15 K | 1251.41 | 5.945
